Experimental data: article PMC7594079, “Insights into the Function and Evolution of Taste 1 Receptor Gene Family in the Carnivore Fish Gilthead Seabream (Sparus aurata)” (International Journal of Molecular Sciences, 2020)

Experiments:
[1] = system: saT1R1/R3, saT1R2a/R3 and saT1R2b/R3; test: Screen of 20 L-AAs for dose-response activation of the three saT1R heterodimers in Cl.3 cells; assay type: cell-based, Sparus aurata; conditions: up to eight concentrations, 10 nM to 100 mM
Description: (§1) saT1Rs (saT1R1, saT1R2a, saT1R2b saT1R3) and saGαi1-2 genes were RT-PCR amplified using 5’ and 3’ flanking primers carrying HindIII and XhoI restriction sites, respectively. Gel-purified fragments were cloned into pGEM-T Easy vectors, re-sequenced, digested and subcloned into pcDNA™3 (Invitrogen, Carlsbad, CA, USA). Effective saT1R cloning into pcDNA™3 was further verified by HindIII/XhoI digestion. Transient co-transfections were done in 6-well plates (confluence ~70–80%) using 100 μL of reduced serum medium (Opti-MEM, Gibco, Thermo Fisher, Saint Louis, MO, USA) containing 150 ng of each selected pcDNA™3 construct, 1:10 charge ratio of Enhanced Green Fluorescent expressing construct (EGFP; positive control), and pBluescript II SK (+) vector DNA (Addgene, Watertown, MA, USA) up to 1 µg of totally transfected DNA. Following 24 h incubation, cells were washed with fresh standard medium and plated in polylysine treated plates for additional 24 h. Cells were then stimulated with L-AAs and sugar compounds for 18 h in a reduced assay medium (BME w/o L-glutamate; Gibco, Thermo Fisher, Saint Louis, MO, USA) + 1% FBS), to prevent unspecific Ca^2+/NFAT signaling activation and potential saT1R desensitization. All L-AAs and sugars used for in vitro experiments were obtained from Merck KGaA (Darmstadt, Germany).

[2] = target: T1, saT1R2b/R3 (Sparus aurata, UniProt A0A671TG56+A0A671VZB3); test: saT1R2b/R3 heterodimer transiently transfected in stable pGL3-NFAT-luc-HEK293 (Cl.3) cells, luciferase reporter; assay type: cell-based; conditions: for T1R2b/R3 [MSD] maximum stimulation dose: as molarity, decimal comma
T1 sequence (A0A671TG56 20-821): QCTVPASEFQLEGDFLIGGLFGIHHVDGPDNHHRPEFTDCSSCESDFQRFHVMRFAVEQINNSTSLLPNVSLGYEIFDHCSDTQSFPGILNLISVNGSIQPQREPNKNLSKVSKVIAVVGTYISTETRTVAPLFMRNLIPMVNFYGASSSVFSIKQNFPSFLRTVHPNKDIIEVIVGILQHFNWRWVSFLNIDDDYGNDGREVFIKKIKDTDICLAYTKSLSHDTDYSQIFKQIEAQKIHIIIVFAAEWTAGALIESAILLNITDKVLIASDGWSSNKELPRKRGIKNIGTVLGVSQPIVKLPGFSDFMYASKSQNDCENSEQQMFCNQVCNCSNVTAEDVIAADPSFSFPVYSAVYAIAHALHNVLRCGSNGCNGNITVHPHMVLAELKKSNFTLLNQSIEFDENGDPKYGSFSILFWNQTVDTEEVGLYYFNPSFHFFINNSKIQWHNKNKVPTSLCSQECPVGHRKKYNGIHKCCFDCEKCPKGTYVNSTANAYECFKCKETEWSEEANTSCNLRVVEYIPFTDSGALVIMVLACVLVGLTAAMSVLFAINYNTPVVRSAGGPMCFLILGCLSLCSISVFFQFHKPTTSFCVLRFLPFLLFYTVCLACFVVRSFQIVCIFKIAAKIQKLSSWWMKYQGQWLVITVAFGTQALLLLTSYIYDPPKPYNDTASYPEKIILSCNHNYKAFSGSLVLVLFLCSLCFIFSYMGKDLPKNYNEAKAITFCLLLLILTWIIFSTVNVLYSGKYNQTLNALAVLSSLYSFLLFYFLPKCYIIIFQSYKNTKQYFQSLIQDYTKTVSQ
T1 sequence (A0A671VZB3 24-860): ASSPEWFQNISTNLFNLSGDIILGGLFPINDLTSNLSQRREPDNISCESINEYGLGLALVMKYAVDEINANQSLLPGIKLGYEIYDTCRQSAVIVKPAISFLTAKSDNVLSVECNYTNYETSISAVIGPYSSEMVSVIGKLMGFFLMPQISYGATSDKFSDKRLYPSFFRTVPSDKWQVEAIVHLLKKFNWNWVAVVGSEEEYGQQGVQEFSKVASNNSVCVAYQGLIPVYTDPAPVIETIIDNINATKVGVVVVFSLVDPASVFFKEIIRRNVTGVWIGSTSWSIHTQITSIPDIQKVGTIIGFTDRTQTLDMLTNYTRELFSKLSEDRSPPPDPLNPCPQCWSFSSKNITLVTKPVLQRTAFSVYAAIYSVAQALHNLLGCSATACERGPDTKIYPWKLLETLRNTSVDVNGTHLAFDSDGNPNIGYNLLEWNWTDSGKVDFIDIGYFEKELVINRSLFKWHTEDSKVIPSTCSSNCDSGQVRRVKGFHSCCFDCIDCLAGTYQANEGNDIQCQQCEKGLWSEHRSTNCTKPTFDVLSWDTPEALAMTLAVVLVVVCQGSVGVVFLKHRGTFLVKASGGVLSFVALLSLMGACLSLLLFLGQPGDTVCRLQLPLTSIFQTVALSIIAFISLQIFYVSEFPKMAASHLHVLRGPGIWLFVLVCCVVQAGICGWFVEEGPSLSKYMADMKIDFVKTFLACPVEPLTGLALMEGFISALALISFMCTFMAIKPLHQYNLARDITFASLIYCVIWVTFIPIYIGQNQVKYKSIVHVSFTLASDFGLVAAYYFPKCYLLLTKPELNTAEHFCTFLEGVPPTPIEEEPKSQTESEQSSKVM
Excerpt: Figure 6 Amino acid Log-dose response curves of activation in heterologous co-transfected (Cl.3) cells with saT1R1/3 (green dots), saT1R2a/3 (red squares) and saT1R2b/3 (black triangles) heterodimers. Evaluation of L-AA responses was based on the RLU mean ± SEM of four independent determinations normalized to the mean response of the same transfections stimulated with reduced assay medium (Basal Medium Eagle w/o L-glutamate (BME) + 1% FBS), and expressed as the percentage relative to basal levels (BL).
HEK293 cells were cultured in standard medium DMEM (Gibco, Thermo Fisher, Saint Louis, MO, USA) containing 10% FBS, penicillin (100 U/mL) and streptomycin ([…]) at 37 °C, with a humidified atmosphere at 5% CO2. pGL3-NFAT-luc-HEK293 stable clones were generated by co-transfections of pGL3-NFAT-luc and tgCMV/HyTK plasmids (50:1), the latter harboring the hygromycin phosphotransferase gene, using Lipofectamine LTX according to supplier’s protocols (Thermo Fisher, Saint Louis, MO, USA). Initially, HEK293 cells were selected using DMEM containing 400 μg/mL hygromycin B (Sigma, Darmstadt, Germany) in 24-well plates for two weeks; 24 colonies were further grown out in 96-well plates under reduced hygromycin selection (200 µg/mL) for three weeks. Potentially resistant NFAT-luc-HEK293 clones (n = 22) were validated after incubation in assay medium (DMEM + 1% FBS) containing PMA or Ionomycin (Sigma, Darmstadt, Germany) for 18 h (triplicates, 50,000 cells/well). Luciferase activity was quantified with ONE-Glo™ EX Reagent Kit (Promega, Madison, WI, USA) using a 96-microplate TECAN reader (Trading AG, Switzerland).
as §1

Structure (SMILES)	dose-response activation for at least one of the three saT1R heterodimers [1]	T1R2b/R3 [MSD] maximum stimulation dose [2]	concentration with significant activation ([2]; saT1R2b/R3, tested 1–500 mM) [mM]
CSCC[C@H](N)C(=O)O [Met, Methionine]	generated a dose-response activation	1,00 × 10^-1 M	
C[C@H](N)C(=O)O [Ala, Alanine]	generated a dose-response activation	1,00 × 10^-1 M	
N[C@@H](CC(=O)O)C(=O)O [Asp, Aspartic acid]	did not respond in a dose-response manner	1,00 × 10^-5 M	
N[C@@H](CS)C(=O)O [Cys, Cysteine]	did not respond in a dose-response manner	1,00 × 10^-4 M	
N[C@@H](CCC(=O)O)C(=O)O [Glu, Glutamic acid]	generated a dose-response activation	1,00 × 10^-2 M	
CC[C@H](C)[C@H](N)C(=O)O [Ile, Isoleucine]	generated a dose-response activation	1,00 × 10^-1 M	
N[C@@H](Cc1c[nH]cn1)C(=O)O [His, Histidine]	did not respond in a dose-response manner	1,00 × 10^-5 M	
NCC(=O)O [Gly, Glycine]	generated a dose-response activation	1,00 × 10^-1 M	
N=C(N)NCCC[C@H](N)C(=O)O [Arg, Arginine]	did not respond in a dose-response manner	1,00 × 10^-5 M	
N[C@@H](Cc1ccccc1)C(=O)O [Phe, Phenylalanine]	did not respond in a dose-response manner	1,00 × 10^-2 M	
NC(=O)CC[C@H](N)C(=O)O [Gln, Glutamine]	generated a dose-response activation	1,00 × 10^-1 M	
N[C@@H](CO)C(=O)O [Ser, Serine]	generated a dose-response activation	1,00 × 10^-1 M	
NC(=O)C[C@H](N)C(=O)O [Asn, Asparagine]	did not respond in a dose-response manner	1,00 × 10^-1 M	
CC(C)[C@H](N)C(=O)O [Val, Valine]	generated a dose-response activation	1,00 × 10^-1 M	
O=C(O)[C@@H]1CCCN1 [Pro, Proline]	generated a dose-response activation	1,00 × 10^-1 M	
OC[C@H]1OC(O)[C@H](O)[C@@H](O)[C@@H]1O (stereo partly drawn) [D-Glucose]			200
C[C@@H](O)[C@H](N)C(=O)O [Thr, Threonine]	generated a dose-response activation	1,00 × 10^-1 M	
NCCCC[C@H](N)C(=O)O [Lys, Lysine]	did not respond in a dose-response manner	1,00 × 10^-3 M	
N[C@@H](Cc1c[nH]c2ccccc12)C(=O)O [Trp, Tryptophan]	did not respond in a dose-response manner	1,00 × 10^-3 M	
CC(C)C[C@H](N)C(=O)O [Leu, Leucine]	generated a dose-response activation	1,00 × 10^-1 M	
N[C@@H](Cc1ccc(O)cc1)C(=O)O [Tyr, Tyrosine]	did not respond in a dose-response manner	1,00 × 10^-3 M	
